Data taken from patent publication US20240245736A1, “COMPOSITIONS AND METHODS FOR REDUCING BLOOD ALCOHOL CONTENT” (LIFE WELL LIVED, LLC, priority 2012, published 2024).

Experiment: BAC scores by breathalyzer and observed behavior in subjects who had voluntarily consumed alcohol, compared with projected BAC
Assay type: in vivo, human
Parameters: actual BAC score / actual BAC: unit not given here
Settings: for effect on the subject's BAC score, summary of the experiments: actual vs projected BAC over the course of the experiment; for change in BAC twenty minutes after administration: summary over subjects; for signs of intoxication: twenty minutes after administration
From the text: The following experiments involved subjects who voluntarily consumed alcoholic beverages. The subjects chose the type and amount of alcohol that was consumed, as well as the rate at which the alcohol was consumed. At the point when the subjects started to feel effects of their alcohol consumption and chose to stop consuming alcohol, the subjects voluntarily consumed a composition that contained a source of NAD+, Lactobacillus, Bifidobacterium, or a combination of two or more of those ingredients. Projected BAC scores were calculated approximately every twenty minutes using an online BAC calculator provided by the Wisconsin Department of Transportation, which provides a projected BAC based on factors such as the subject's weight, sex, alcohol consumed, rate of alcohol consumed, and food consumed. BAC scores were also quantitatively measured approximately every twenty minutes using a breathalyzer. The projected BAC score served as a negative control because it estimates the change in BAC that is expected to occur over time after a subject stops consuming alcohol. Changes in each subject's behavior were also observed over the course of the experiment.
The ingredients that were administered to the subjects are commercially available and sold for human consumption. In the following experiments, NAD+ was provided by administering 5 mL of Liquid CoQ10, which is made by NOW Foods and contains 5 mg NAD+ in the 5 mL dose. To administer Lactobacillus, the subjects were given two Culturelle® Health & Wellness capsules, each of which contains Lactobacillus GG (10 billion cells). To administer Bifidobacterium, subjects were given two capsules of Align® Bifantis® Bifidobacterium infantis 35624, which contain 1 billion cfu per capsule. To administer Lactobacillus and Bifidobacterium, subjects were given 1-2 capsules of Dr. Mercola's® Complete Probiotics capsules, each of which contains 35 billion cells including the following species: Lactobacillus acidophilus DDS-1, Lactobacillus casei, Lactobacillus plantarum, Lactobacillus salivarius, Lactobacillus rhamnosus, Lactobacillus brevis, Bifidobacterium lactis, Bifidobacterium longum, Bifidobacterium bifidum, and Streptococcus thermophilus. Subjects were also given 5 mg of zinc, which was provided in liquid form.

With Bifidobacterium the “actual BAC” value (FIG. 7, person, 146 pounds, wine, 1:20, twenty minutes after administration, BAC at administration 0.159, projected 0.157) was 0.151, the “effect on the subject's BAC score, actual vs projected” value (from here on “effect … vs projected”) (FIG. 7 subject) was “little effect” and the “actual BAC” value (FIG. 8, person, 171 pounds, 12:40, twenty minutes after administration, BAC at administration 0.13, projected 0.132) was 0.125. The “effect … vs projected” value (FIG. 8 subject) was “little effect”, the “effect on the subject's BAC score, summary of the experiments” value (from here on “effect … of the experiments”) was “no effect or only a minimal effect” and the “change in BAC twenty minutes after administration” value (“change in BAC twenty minutes” below) was “increase in BAC”.

For `NC(=O)c1ccc[n+]([C@@H]2O[C@H](COP(=O)([O-])OP(=O)(O)OC[C@H]3O[C@@H](n4cnc5c(N)ncnc54)[C@H](O)[C@@H]3O)[C@@H](O)[C@H]2O)c1` [NAD+, nicotinamide adenine dinucleotide, reference compound], the “actual BAC score” value (FIG. 1, person, 198 pounds, beer and wine, 11:12, twenty minutes after administration, BAC at administration 0.089, projected 0.084) was 0.082, the “effect … vs projected” value (FIG. 1 subject) was “no effect” and the signs of intoxication (FIG. 1 subject) was “continued to exhibit signs of intoxication”. The “actual BAC score” value (FIG. 2, person, 188 pounds, beer, 11:12, twenty minutes after administration, BAC at administration 0.085, projected 0.085) was 0.086, the “effect … vs projected” value (FIG. 2 subject) was “minimal or no effect” and the signs of intoxication (FIG. 2 subject) was “continued to exhibit signs of intoxication”. The “actual BAC score” value (FIG. 3, person, 169 pounds, beer and vodka, 11:12, twenty minutes after administration, BAC at administration 0.086, projected 0.087) was 0.086, the “effect … vs projected” value (FIG. 3 subject) was “little effect” and the signs of intoxication (FIG. 3 subject) was “continued to exhibit signs of intoxication”. For the same molecule, the “actual BAC” value (FIG. 9, person, 182 pounds, beer and vodka, 11:32, 40 minutes after NAD+ at 10:52 (BAC 0.088), before Lactobacillus and Bifidobacterium) was 0.056, the “effect … of the experiments” value was “no effect or only a minimal effect” and the “change in BAC twenty minutes” value was “increase in BAC”.

For Lactobacillus, the “actual BAC score” value (FIG. 4, person, 122 pounds, wine and vodka, 7:25, twenty minutes after administration, BAC at administration 0.086, projected 0.084) was 0.082, the “effect … vs projected” value (FIG. 4 subject) was “no effect” and the signs of intoxication (FIG. 4 subject) was “continued to exhibit signs of intoxication”. The “actual BAC score” value (FIG. 5, person, 155 pounds, beer and wine, 7:25, twenty minutes after administration, BAC at administration 0.13, projected 0.129) was 0.12, the “effect … vs projected” value (FIG. 5 subject) was “little effect” and the “actual BAC score” value (FIG. 6, person, 169 pounds, beer and vodka, 7:25, twenty minutes after administration, BAC at administration 0.086, projected 0.074) was 0.067. The “effect … vs projected” value (FIG. 6 subject) was “little effect”, the “effect … of the experiments” value was “no effect or only a minimal effect” and the “change in BAC twenty minutes” value was “increase in BAC”.
